Read-outs that look alike come from different tables or passages of the source.
Assays:
NF-κB [1] = assay: HEK293 NF-κB-luciferase reporter gene assay, TNF-alpha stimulation
Protocol: Day 7: HEK293 and Jurkat NF-κB reporter cells were plated and treated with a dose-response of human TNF-alpha for 2 to 24 hours, lysed and treated with Bright-Glo luciferase reagent (Promega) and luminescence measured with the LJL Acquest luminometer.
(§2) HEK293T NF-κB reporter cells were seeded at 7000 cells/well in 384-well plates in triplicate. Eighteen hours later, cells were treated with TNF-alpha (10 ng/mL) in the absence of or presence of 1, 2 or 5 mM sodium salicylate. Cells in other wells were transfected with mammalian expression vectors encoding wild-type human IKK-beta (50 ng) or NF-κB p65 (10 ng) by calcium phosphate. Eight hours post transfection, fresh medium was added with 1, 2 or 5 mM sodium salicylate and incubated for an additional 16 hours. At 24 hours post TNF addition or post transfection, cells were lysed and incubated with Bright-Glo (Promega) and Relative Light Units (RLUs) were determined using the LJL Acquest luminometer.
Stimulus and detection addition: After 30 minute incubation with compounds, a solution of TNF-alpha (Sigma) diluted to 60 ng/ml and transferred to cells using the Cartesian synQUAD such that 1 μL of stimulus was added per well to a final dilution of approximately 10 ng/ml final. […] Cells were incubated with the Alamar Blue for three hours then read on the LJL Acquest in fluorescence mode at 100,000 us/well. […] Precisely five minutes after addition of Bright-Glo, the cell plate was read in luminescence mode in the LJL Acquest at 100,000 us per well. Wells treated with compounds in which fluorescent signals were >90% of the mean across the plate, and below 50% of the mean across the plate for luminescence were identified and compounds hit picked for future studies. […] IC50 values were also determined in the HEK293 NF-κB reporter gene assay in the same manner.
(§3) HEK293 NF-κB reporter cells were plated in 96-well plates at 28,000 cells/well in D'MEM media containing 10% FBS, pen-strep antibiotics and 1 mM glutamine. […] After 24 hours, samples were treated with Bright-Glo and analyzed using the LJL Acquest luminometer.

NF-κB [2] = assay: In cellulo competition: over-expression of TNF/NF-κB pathway cDNAs in HEK293 NF-κB reporter cells; conditions: for Effect of over-expressed IKK-beta or NF-κB p65 on the compound's inhibition of the NF-κB reporter: transient over-expression, 1, 2 or 5 mM
Protocol: as §2
Screening and Small Complementation: HEK293 NF-κB reporter cells were plated at 7000 cells/well in 384-well Greiner clear bottom plates using a Titertek Multidrop. Cells were incubated for 8 hours before transfection of the cDNA libraries. […] Thirty minutes compound treatment, The Hydra was used again to mix two μL DNA with 8 ul of a premixed solution 61 μl 2m CaC12, 440 μH20 distributed into a 384-well intermediate plate. Then, 10 ul of a 2× Hepes Buffered Saline solution (HBS, pH 7.0) was mixed with the DNA and pipetted automatically for 5 seconds followed by 10 μL addition of the transfection solution to HEK293 NF-κB reporter cells. After transfected plates of cells were incubated at 37° C. for 16 hours, Bright-Glo was added to each well using a twelve-head multi-channel pipettor, incubated for five minutes then read on the LJL Acquest in luminescence mode. Controls used in this experiment were limited to p65, IKK-beta, NIK and IKK-alpha. Additionally, retroviral vectors encoding firefly luciferase alone were plated in 384-wells and transfected into wild-type HEK293 cells to determine transfection efficiency and CVs.
as §3

NF-κB [3] = assay: Jurkat NF-κB-luciferase reporter cell assay, TNF-alpha stimulation; format: cell-based; conditions: Jurkat reporter cells
Protocol: (§1) Alternatively, Jurkat NF-κB reporter cells were seeded at 30,000 cells per/ml in 384-well microtiter plates. Recombinant retroviruses encoding wild-type IKK-beta or NF-κB p65 were generated and used to transduce Jurkat reporter cells. Untransduced cells were treated with 1, 2 or 5 mM salicylate for 30 minutes prior to stimulation with TNF-alpha (10 ng/ml).
Cell Plating: Jurkat NF-κB reporter cells were seeded at 5 μL per well in Greiner 1536-well micro-plates using the Cartesian synQUAD. Settings for the 24,000 step motor were such that a 100 μL syringe would provide a volume per step of 4.2 nL; timing was controlled by a master dispenser solenoids and stepper motors which moved the stage and controlled the syringe pumps. The result was extremely rapid “on-the-fly” dispensing, similar to an inkjet printer. […]
Compound addition: Four Falcon 384-well plates containing compounds (Aldrich) dissolved in dimethylsulfoxide (DMSO) to a final concentration of 1 mM (excepting the last two columns which were just DMSO) were transferred to the Jurkat reporter cells. […] Coefficients of variation (CVs) before and after compound addition was determined by transferring liquid from a FITC solution bath to 384 well plates and read on the LJL Acquest in fluorescence modality.

NF-κB [4] = conditions: Jurkat reporter cells, stable retroviral over-expression, 1, 2 or 5 mM
Protocol: as §1, with “ng/ml). For transduced cells, 4 hours post retroviral incubation, cells were treated with either 0, 1, 2 or 5 mM salicylic acid.” for “ng/ml).”

Compound: CC(=O)c1c(O)c(C)c(O)c(Cc2c(O)c3c(c(C(=O)/C=C/c4ccccc4)c2O)OC(C)(C)C=C3)c1O [Rottlerin]
- IC50 (NF-κB [1]; Homo sapiens, HEK293, read-out: IC50 concentration, NF-κB reporter gene assay): 50 nM
- Block of NF-κB reporter signals induced by TNF or over-expressed TNFR, TRAF2, NIK, IKK-beta, IKK-alpha, p65 (NF-κB [2]; compound at its IC50 concentration, 24 hours): able to block signals induced by TNF, TNFR, but not TRAF2

Compound: O=C(O)c1ccccc1O [Salicylate, salicylic acid]
- Block of TNF induction of NF-κB reporter (NF-κB [1]; HEK293 reporter cells, TNF-alpha 10 ng/mL, 1, 2 or 5 mM sodium salicylate): block TNF induction of NF-κB
- Effect of over-expressed IKK-beta or NF-κB p65 on the compound's inhibition of the NF-κB reporter (NF-κB [2]): over-expression of cDNA encoding human IKK-beta diminished the inhibitory effects
- Effect of over-expressed IKK-beta or NF-κB p65 on the compound's inhibition of the NF-κB reporter (NF-κB [2]; listed as salicyclic acid): over-expression of IKK-beta, but not NF-κB p65, could titrate out the effect
- Block of TNF induction of NF-κB reporter (NF-κB [3]; TNF-alpha 10 ng/ml, 1, 2 or 5 mM salicylate): block TNF induction of NF-κB
- Effect of over-expressed IKK-beta or NF-κB p65 on the compound's inhibition of the NF-κB reporter (NF-κB [4]): over-expression of cDNA encoding human IKK-beta diminished the inhibitory effects
- Effect of over-expressed IKK-beta or NF-κB p65 on the compound's inhibition of the NF-κB reporter (NF-κB [4]; listed as salicyclic acid): over-expression of IKK-beta, but not NF-κB p65, could titrate out the effect

Compound: TNF-alpha
- Induction of NF-κB reporter luciferase (NF-κB [1]; HEK293 reporter cells, dose-response, 2 to 24 hours): inducible
- Induction of NF-κB reporter luciferase (NF-κB [3]; dose-response, 2 to 24 hours): inducible

From patent US20030170642A1, “Identification of cellular targets for biologically active molecules” (IRM, LLC, priority 2001, published 2003)
